Experimental data: patent US20260042769A1, “TRIARYL AGONISTS OF ALPHA-2 ADRENERGIC RECEPTORS” (ALCEPTOR THERAPEUTICS, INC., priority 2023, published 2026)

biological target: T1, human ADRA2B receptor (Homo sapiens, UniProt P18089); experiment: ADRA2B arrestin agonist assay; assay type: cell-based; conditions: CHO-K1 cells stably expressing human ADRA2B; read-out: Beta-Arrestin - Human Alpha2B EC50
T1 construct: expressed in transfected cells
T1 sequence (P18089 1-450): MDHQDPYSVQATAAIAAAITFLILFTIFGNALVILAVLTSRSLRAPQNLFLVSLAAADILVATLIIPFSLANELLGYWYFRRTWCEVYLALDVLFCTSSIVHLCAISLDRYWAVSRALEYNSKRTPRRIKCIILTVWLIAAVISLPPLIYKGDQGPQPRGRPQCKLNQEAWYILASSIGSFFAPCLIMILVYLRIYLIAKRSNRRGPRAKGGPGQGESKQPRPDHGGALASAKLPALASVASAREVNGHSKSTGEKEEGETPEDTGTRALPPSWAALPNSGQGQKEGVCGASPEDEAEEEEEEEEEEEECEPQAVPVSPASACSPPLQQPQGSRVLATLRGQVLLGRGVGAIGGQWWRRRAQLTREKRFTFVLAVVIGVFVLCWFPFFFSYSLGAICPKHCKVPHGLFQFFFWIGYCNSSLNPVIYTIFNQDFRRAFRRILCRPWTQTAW
In short: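 CHO-K1 cells stably expressing human ADRA2B, thawed from frozen stock and plated overnight, were treated with agonist for 2 h at 37 °C. Arrestin recruitment detected by luminescence after 2 h with detection reagents at room temperature.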

Question: With `Cc1cccc([C@H](Cc2cccc(CF)n2)c2c[nH]cn2)c1C` [Compound 151, 4-{(S)-2-[6-(fluoromethyl)-2-pyridyl]-1-(2,3-xylyl)ethyl}imidazole] as the molecule, how does the EC50 read?
Answer: 50 to 500 nM

Question: For `COc1cc(CC(c2c[nH]cn2)c2cccc3c2OCC3)ccn1` (centres unmarked) [Compound 314, 4-[1-(2,3-dihydro-1-benzofuran-7-yl)-2-(2-methoxy-4-pyridyl)ethyl]imidazole], which EC50 is on record?
Answer: < 10 nM

Question: For `Cc1cccc([C@@H](Cc2ccnc(C3CC3)n2)c2c[nH]cn2)c1C` [Compound 169, 4-[(R)-2-(4-imidazolyl)-2-(2,3-xylyl)ethyl]-2-cyclopropylpyrimidine], which EC50 is on record?
Answer: < 10 nM

Question: Which EC50 does the source give for `Fc1c(Cl)cccc1C(Cc1cnco1)c1c[nH]cn1` (centres unmarked) [Compound 392, 5-[2-(3-chloro-2-fluorophenyl)-2-(4-imidazolyl)ethyl]-1,3-oxazole] here?
Answer: 10 to 50 nM

Question: For `c1cc2c(c([C@H](Cc3cocn3)c3c[nH]cn3)c1)OCC2` [Compound 372, 4-[(S)-2-(2,3-dihydro-1-benzofuran-7-yl)-2-(4-imidazolyl)ethyl] 1,3-oxazole], which EC50 is on record?
Answer: 50 to 500 nM

Question: `Cc1cccc(C(Cc2ccns2)c2c[nH]cn2)c1C` (centres unmarked) [Compound 244, 5-[2-(4-imidazolyl)-2-(2,3-xylyl)ethyl]isothiazole] was tested. Which EC50 did it give?
Answer: < 10 nM

Question: `Cc1nsc(CC(c2c[nH]cn2)c2cccc(C)c2C)n1` (centres unmarked) [Compound 264, 5-[2-(4-imidazolyl)-2-(2,3-xylyl)ethyl]-3-methyl-1,2,4-thiadiazole] was tested. Which EC50 did it give?
Answer: 50 to 500 nM

Question: For `Cn1ccc2cccc(C(Cc3cocn3)c3c[nH]cn3)c21` (centres unmarked) [Compound 377, 4-[2-(4-imidazolyl)-2-(1-methyl-7-indolyl)ethyl]-1,3-oxazole], which EC50 is on record?
Answer: 50 to 500 nM

Question: Which EC50 does the source give for `COc1cc(CC(c2c[nH]cn2)c2cccc(C)c2C)ccn1` (centres unmarked) [Compound 274, 4-[2-(2-methoxy-4-pyridyl)-1-(2,3-xylyl)ethyl]imidazole] here?
Answer: < 10 nM

Question: For `Cc1cccc([C@H](Cc2ccnn2C(F)F)c2c[nH]cn2)c1C` [Compound 281, 5-[(S)-2-(4-imidazolyl)-2-(2,3-xylyl)ethyl]-1-(difluoromethyl)pyrazole], which EC50 is on record?
Answer: < 10 nM

Question: With `COc1nccc(CC(c2ccc(F)c(F)c2)c2c[nH]cn2)n1` (centres unmarked) [Compound 162, 4-[2-(3,4-difluorophenyl)-2-(4-imidazolyl)ethyl]-2-methoxypyrimidine] as the molecule, how does the EC50 read?
Answer: > 500 nM

Question: `COc1c(C)cccc1C(Cc1cnco1)c1c[nH]cn1` (centres unmarked) [Compound 375, 5-[2-(4-imidazolyl)-2-(2-methoxy-3-tolyl)ethyl]-1,3-oxazole] was tested. Which EC50 did it give?
Answer: 50 to 500 nM

Question: How did the EC50 turn out when `COc1nccc(CC(c2c[nH]cn2)c2cccc(Cl)c2F)n1` (centres unmarked) [Compound 190, 4-[2-(3-chloro-2-fluorophenyl)-2-(4-imidazolyl)ethyl]-2-methoxypyrimidine] was run?
Answer: 10 to 50 nM

Question: How did the EC50 turn out when `Cc1cccc([C@H](Cc2ccnc(C3CC3)n2)c2c[nH]cn2)c1C` [Compound 168, 4-[(S)-2-(4-imidazolyl)-2-(2,3-xylyl)ethyl]-2-cyclopropylpyrimidine] was run?
Answer: 10 to 50 nM

Question: `c1ccc(C[C@@H](c2c[nH]cn2)c2cccc3c2OCC3)nc1` [Compound 252, 4-[(R)-1-(2,3-dihydro-1-benzofuran-7-yl)-2-(2-pyridyl)ethyl]imida-] was tested. Which EC50 did it give?
Answer: 10 to 50 nM

Question: With `Cc1nnc(CC(c2c[nH]cn2)c2cccc(C)c2C)s1` (centres unmarked) [Compound 263, 2-[2-(4-imidazolyl)-2-(2,3-xylyl)ethyl]-5-methyl-1,3,4-thiadiazole] as the molecule, how does the EC50 read?
Answer: 50 to 500 nM

Question: `COc1nccc(CC(c2cccc(C)c2)c2c[nH]cn2)n1` (centres unmarked) [Compound 337, 4-[2-(4-imidazolyl)-2-(m-tolyl)ethyl]-2-methoxypyrimidine] was tested. Which EC50 did it give?
Answer: 10 to 50 nM

Question: For `Cc1cccc([C@@H](Cc2cccc(CO)n2)c2c[nH]cn2)c1C` [Compound 146, {6-[(R)-2-(4-imidazolyl)-2-(2,3-xylyl)ethyl]-2-pyridyl}methanol], which EC50 is on record?
Answer: < 10 nM

Question: `OCc1nccc(CC(c2c[nH]cn2)c2cccc(Cl)c2F)n1` (centres unmarked) [Compound 191, {4-[2-(3-chloro-2-fluorophenyl)-2-(4-imidazolyl)ethyl]-2-pyrimidinyl}methanol] was tested. Which EC50 did it give?
Answer: 10 to 50 nM

Question: How did the EC50 turn out when `Cc1cccc([C@@H](Cc2ccnc(CF)n2)c2c[nH]cn2)c1C` [Compound 153, 4-[(R)-2-(4-imidazolyl)-2-(2,3-xylyl)ethyl]-2-(fluoromethyl) pyrimidine] was run?
Answer: < 10 nM

Question: `Cc1cccc(C(Cc2ccnc(C3COC3)n2)c2c[nH]cn2)c1C` (centres unmarked) [Compound 210, 4-[2-(4-imidazolyl)-2-(2,3-xylyl)ethyl]-2-(3-oxetanyl)pyrimidine] was tested. Which EC50 did it give?
Answer: < 10 nM

Question: How did the EC50 turn out when `Cc1nccc(C[C@@H](c2c[nH]cn2)c2cccc(C)c2F)n1` [Compound 141, 4-[(R)-2-(2-fluoro-3-tolyl)-2-(4-imidazolyl)ethyl]-2-methylpyrimidine] was run?
Answer: < 10 nM

Question: With `COc1nccc(CC(c2c[nH]cn2)c2cccc3cnn(C)c23)n1` (centres unmarked) [Compound 350, 7-[1-(4-imidazolyl)-2-(2-methoxy-4-pyrimidinyl)ethyl]-1-methyl-1H-indazole] as the molecule, how does the EC50 read?
Answer: 50 to 500 nM

Question: How did the EC50 turn out when `c1cc2c(c([C@@H](Cc3cocn3)c3c[nH]cn3)c1)OCCO2` [Compound 383, 4-[(R)-2-(2,3-dihydro-1,4-benzodioxin-5-yl)-2-(4-imidazolyl)ethyl] 1,3-oxazole] was run?
Answer: > 500 nM

Question: For `Cc1cccc(C(Cc2cc[nH]n2)c2c[nH]cn2)c1F` (centres unmarked) [Compound 236, 3-[2-(2-fluoro-3-tolyl)-2-(4-imidazolyl)ethyl]pyrazole], which EC50 is on record?
Answer: 50 to 500 nM

Question: For `Cc1cccc([C@@H](Cc2cccc(CF)n2)c2c[nH]cn2)c1C` [Compound 150, 4-{(R)-2-[6-(fluoromethyl)-2-pyridyl]-1-(2,3-xylyl)ethyl}imidazole], which EC50 is on record?
Answer: < 10 nM

Question: `c1cc2c(c([C@H](Cc3cocn3)c3c[nH]cn3)c1)OCCO2` [Compound 384, 4-[(S)-2-(2,3-dihydro-1,4-benzodioxin-5-yl)-2-(4-imidazolyl)ethyl]-1,3-oxazole] was tested. Which EC50 did it give?
Answer: 10 to 50 nM

Question: With `Cc1cccc([C@@H](Cc2cc[nH]n2)c2c[nH]cn2)c1C` [Compound 234, 3-[(R)-2-(4-imidazolyl)-2-(2,3-xylyl)ethyl]pyrazole] as the molecule, how does the EC50 read?
Answer: > 500 nM

Question: How did the EC50 turn out when `Cn1nc2ccccc2c1CC(c1c[nH]cn1)c1cccc2c1OCC2` (centres unmarked) [Compound 308, 3-[2-(2,3-dihydro-1-benzofuran-7-yl)-2-(4-imidazolyl)ethyl]-2-methyl-2H-indazole] was run?
Answer: 10 to 50 nM

Question: How did the EC50 turn out when `Cc1cccc([C@@H](Cc2ccnc(C(C)(C)O)n2)c2c[nH]cn2)c1C` [Compound 212, 2-{4-[(R)-2-(4-imidazolyl)-2-(2,3-xylyl)ethyl]-2-pyrimidinyl}-2-propanol] was run?
Answer: < 10 nM

Question: `Cc1cccc(C(Cc2ccc(F)c(CO)n2)c2c[nH]cn2)c1C` (centres unmarked) [Compound 318, {3-fluoro-6-[2-(4-imidazolyl)-2-(2,3-xylyl)ethyl]-2-pyridyl}methanol] was tested. Which EC50 did it give?
Answer: < 10 nM

Question: `Cc1cccc(C(Cc2ccnc(F)c2)c2c[nH]cn2)c1F` (centres unmarked) [Compound 321, 4-[2-(2-fluoro-4-pyridyl)-1-(2-fluoro-3-tolyl)ethyl]imidazole] was tested. Which EC50 did it give?
Answer: < 10 nM

Question: How did the EC50 turn out when `Cc1cnc(CC(c2c[nH]cn2)c2cccc(C)c2C)s1` (centres unmarked) [Compound 385, 2-[2-(4-imidazolyl)-2-(2,3-xylyl)ethyl]-5-methyl-1,3-thiazole] was run?
Answer: < 10 nM

Question: How did the EC50 turn out when `COCc1cc(CC(c2c[nH]cn2)c2cccc(C)c2C)ccn1` (centres unmarked) [Compound 295, 4-{2-[2-(methoxymethyl)-4-pyridyl]-1-(2,3-xylyl)ethyl}imidazole] was run?
Answer: < 10 nM

Question: With `Cc1cccc([C@H](Cc2cnco2)c2c[nH]cn2)c1C` [Compound 364, 5-[(S)-2-(4-imidazolyl)-2-(2,3-xylyl)ethyl]-1,3-oxazole] as the molecule, how does the EC50 read?
Answer: < 10 nM

Question: Which EC50 does the source give for `Cc1cccc(C(Cc2c(C)ccnc2C)c2c[nH]cn2)c1C` (centres unmarked) [Compound 386, 4-[2-(2,4-dimethyl-3-pyridyl)-1-(2,3-xylyl)ethyl]imidazole] here?
Answer: > 500 nM

Question: For `COc1nccc(C[C@H](c2c[nH]cn2)c2cccc3ccn(C)c23)n1` [Compound 349, 4-[(S)-2-(4-imidazolyl)-2-(1-methyl-7-indolyl)ethyl]-2-methoxypyrimidine], which EC50 is on record?
Answer: > 500 nM

Question: With `COc1nccc(C[C@H](c2c[nH]cn2)c2cccc(F)c2OC)n1` [Compound 183, 4-[(S)-2-(3-fluoro-2-methoxyphenyl)-2-(4-imidazolyl)ethyl]-2-methoxypyrimidine] as the molecule, how does the EC50 read?
Answer: > 500 nM

Question: How did the EC50 turn out when `Cc1cccc(C(Cc2cnc3[nH]ccc3c2)c2c[nH]cn2)c1C` (centres unmarked) [Compound 283, 4-[2-(1H-1,7-diazainden-5-yl)-1-(2,3-xylyl)ethyl]imidazole] was run?
Answer: < 10 nM

Question: Which EC50 does the source give for `Cc1cccc(C(Cc2cn(C3CC3)nn2)c2c[nH]cn2)c1C` (centres unmarked) [Compound 404, 1-cyclopropyl-4-[2-(4-imi-dazolyl)-2-(2,3-xylyl)ethyl]-1H-1,2,3-triazole] here?
Answer: < 10 nM

Question: `Cc1nccc(C[C@H](c2c[nH]cn2)c2cccc(C)c2F)n1` [Compound 142, 4-[(S)-2-(2-fluoro-3-tolyl)-2-(4-imidazolyl)ethyl]-2-methylpyrimidine] was tested. Which EC50 did it give?
Answer: > 500 nM

Question: With `COc1c(C)cccc1C(Cc1cn(C)nn1)c1c[nH]cn1` (centres unmarked) [Compound 260, 4-[2-(4-imidazolyl)-2-(2-methoxy-3-tolyl)ethyl]-1-methyl-1H-1,2,3-triazole] as the molecule, how does the EC50 read?
Answer: 50 to 500 nM

Question: `COCn1ccc(C[C@H](c2c[nH]cn2)c2cccc(C)c2C)n1` [Compound 278, 3-[(S)-2-(4-imidazolyl)-2-(2,3-xylyl)ethyl]-1-(methoxymethyl)pyrazole] was tested. Which EC50 did it give?
Answer: < 10 nM

Question: How did the EC50 turn out when `c1cc2c(c(C(Cc3cnco3)c3c[nH]cn3)c1)OCC2` (centres unmarked) [Compound 390, 5-[2-(2,3-dihydro-1-benzofuran-7-yl)-2-(4-imidazolyl)ethyl] 1,3-oxazole] was run?
Answer: 10 to 50 nM
